Reference: patent publication EP0233031B1, “Methylthioribose analogues, their preparation and use as medicinal agents and biocides” (STATE OF OREGON BY AND THROUGH OREGON STATE BOARD OF HIGHER …, priority 1986, dated 1987)

Assays:
Assay type in all cases: cell-based
Candida albicans [1] = test: Growth inhibition of Candida albicans in LB broth (optical density / visible growth); settings: for OD550 24 hrs / OD550 7 days / OD550 at 24 Hrs: 10^4 cells; for OD550 at 24 Hrs: LB broth
Procedure: In the following examples, an MTR kinase-dependent microorganism is treated in vitro with compounds of this invention. In the following examples, LB is a growth medium (Luria-Bertani) containing, per liter, 10 grams Bacto-tryptone, 5 grams Bacto-yeast extract and 10 grams NaCl. OD₅₅₀ is a measure of the optical density of the suspension at the indicated time. Low optical density indicates a low cell concentration in the suspension and thus that compounds were effective to inhibit the growth of the microorganisms.

Candida albicans [2] = test: Colony count of Candida albicans after incubation with ETR (cytocidal vs cytostatic); settings: for Total # Organisms: colonies x dilution factor 200; for Colonies: 10^3 orgs, 100 l of 1:10 dilution plated
Source text: In this example, samples containing a known number of microorganisms were colonized without ETR and in the presence of ETR. In the instances where growth occurred, one colony formed for each microorganism.

mouse marrow = test: CFU-GM assay, toxicity toward mouse marrow
Source text: In the following examples, human bone marrow and mouse marrow cells were subjected to ethylthioribose. In each case, a preparation of immature blood cells from bone marrow were conventionally stimulated to mature in a gel matrix. Immature human granulocytic precursor (CFU-GM) cells formed a colony in the matrix and the number of cells in the colony was counted. Such tests are believed to be a good measure of the toxicity of the subject compounds to humans.

[3] = tested on: Ochromonas malhamensis (ATCC #11532); test: Toxicity to Ochromonas malhamensis culture (cell number by hemacytometer); settings: Poterioochromonas malhamensis, ATCC11532; 48 hours of incubation; thioglycolate broth; 4x10^4 cells per ml; read-out: ID50 (the source's name)
Procedure: • a. Procedure. 2 ml cultures of O. malhamensis were set up at a cell density of 4x10⁴ per ml. The culture medium used was thioglycolate broth and incubation took place at ambient temperature near a south-facing window (these organisms are photosynthetic). ETR was added at the appropriate dilution at the beginning of the experiment. Cell number was determined using a hemacytometer. The data (shown below) were obtained after 48 hours of incubation. • b. Results. [formula]

[4] = tested on: Giardia lamblia (Portland 1 strain); test: Inhibition of Giardia lamblia culture (cell number by hemacytometer)
Procedure: • a. Procedure. Giardia lamblia was cultured in Diamond's TP-S-1 medium supplemented with 10% heat-inactivated calf serum and antibiotics (penicillin and streptomycin). The antibiotics were added to prevent contamination by bacteria. Tube cultures containing 7 mls of medium were seeded with 5 x 10⁴ organisms per ml and incubated horizontally at 37°C for 48 hrs. ETR was added at the beginning of the experiment. Cell number was determined with the aid of a hemacytometer. • b. Results. [formula]

Plasmodium falciparum = Plasmodium falciparum in vitro erythrocyte culture, Giemsa-stained thin smears
Procedure: • a. Procedure. Parasitized erythrocytes from a stock four-day-old culture at approximately 10% infection were mixed with washed clean erythrocytes to give a final parasitemia of approximately 1%. Using 1.2 cm plastic Petri dishes duplicate 1 ml cultures were initiated with drug dilutions in complete RPMI-1640, containing 0.1 ml of erythrocytes and 50 ug of gentamycin/ml. The cultures were supplemented with RPMI-1640 (25 mM HEPES), 0.24% sodium bicarbonate and 10% human serum (Type A⁻). All cultures were gassed with 90% nitrogen, 5% carbon dioxide and 5% oxygen prior to incubation at 37°C. Parasite growth was assessed by microscopic evaluation of Giemsa-stained thin-smears. • b. Results. [formula]

## OC1O[C@H](CCl)[C@@H](O)[C@H]1O (some centres unmarked) [5-Chloro-5-Deoxyribose, 5-deoxy-5-chlororibose]
Candida albicans [1]; 0.2 of 10mM stock + LB 1.8
  OD550 24 hrs: 0.0
  OD550 7 days: 0.0
Candida albicans [1]; 0.4 of 10mM stock + LB 1.6
  OD550 24 hrs: 0.0
  OD550 7 days: 0.0
Candida albicans [1]; 0.8 of 10mM stock + LB 1.2
  OD550 24 hrs: 0.0
  OD550 7 days: 0.0
Candida albicans [1]; conclusion of Example 20
  killing of Candida albicans: effective to kill

## CCSC[C@H]1OC(O)[C@H](O)[C@@H]1O (some centres unmarked) [ETR, 5-ethylthio-5-deoxyribose]
Candida albicans [1]; ETR 0.092mM
  OD550 at 24 Hrs: 0.409
Candida albicans [1]; ETR 0.23mM
  OD550 at 24 Hrs: 0.355
Candida albicans [1]; ETR 0.46mM
  OD550 at 24 Hrs: 0.357
Candida albicans [1]; ETR 0.9mM
  OD550 at 24 Hrs: 0.120
Candida albicans [1]; ETR 2.3mM
  OD550 at 24 Hrs: 0.0
Candida albicans [1]; ETR 4.6mM
  OD550 at 24 Hrs: 0.0
Candida albicans [1]; ETR 9.2mM
  OD550 at 24 Hrs: 0.0
Candida albicans [1]; conclusion of Examples 17 and 18
  growth of Candida albicans: clearly inhibits the growth
Candida albicans [2]; 3 hrs (+ETR) 4mM
  Total # Organisms: 400
Candida albicans [2]; 3 hrs incubation with ETR 0.5ml (4mM)
  Colonies: 2
Candida albicans [2]; 5 hrs (w/ETR) 4mM
  Total # Organisms: 0
Candida albicans [2]; 5 hrs incubation with ETR 1.5ml (4mM)
  Colonies: 0
Candida albicans [2]; conclusion of Example 19
  cytocidal as opposed to cytostatic: cytocidal
Candida albicans [2]; summary statement of Example 19
  colonies formed in the presence of ETR: less than 1,000 colonies
Mouse marrow; ETR 100 (1:1)
  CFU-GM: 34 --
Mouse marrow; ETR 100 (1:1k), duplicate counts
  CFU-GM: 36,37
Mouse marrow; ETR 100 (1:2), duplicate counts
  CFU-GM: 37,33
Mouse marrow; ETR 100 (1:4), duplicate counts
  CFU-GM: 32,34
Mouse marrow; ETR 100 (1:10), duplicate counts
  CFU-GM: 36,34
Mouse marrow; ETR 100 (1:10k), duplicate counts
  CFU-GM: 35,32
Mouse marrow; ETR 100 (1:20k), duplicate counts
  CFU-GM: 32,34
Mouse marrow; ETR 100 (1:40), duplicate counts
  CFU-GM: 33,35
Mouse marrow; ETR 100 (1:50), duplicate counts
  CFU-GM: 37,36
Mouse marrow; ETR 100 (1:100)
  CFU-GM: 39 --
Mouse marrow; ETR 100 (1:100k), duplicate counts
  CFU-GM: 33,35
Mouse marrow; ETR 100 (stock), duplicate counts
  CFU-GM: 35,36
[3]
  IC50: 20 µM
[4]; Giardia duodenalis, 48 hrs at 37°C, 5 x 10^4 organisms per ml, read-out: ID50 (the source's name)
  IC50: ~450 µM
[4]; concentrations ranging from 0.62mM to 5mM
  cell death and lack of "swimming": significant cell death and lack of "swimming"
Plasmodium falciparum; 24 hours, 1mM ETR
  parasitemia: remained at or below the level of the initial inoculum
Plasmodium falciparum; 24 hours, 1 mM ETR (lowest concentration tested)
  parasite growth: a small increase in growth was noted but the parasites appeared abnormal
Plasmodium falciparum; 24 hours, 5mM ETR
  parasitemia: remained at or below the level of the initial inoculum
Plasmodium falciparum; 48 hours, 1 mM ETR (lowest concentration tested), initial seeding <1.0%
  parasitemia: less than 0.1%
Plasmodium falciparum; 72 hours, 1 mM ETR (lowest concentration tested)
  infection: less than 1 parasite per 10,000 red cells
Plasmodium falciparum; 72 hours, all drug-treated cultures
  culture infection: completely negative
Plasmodium falciparum; after 5 days (the last 3 days without drug)
  reappearance of parasitemia: did not reappear
Plasmodium falciparum; overall conclusion
  inhibition of P. falciparum in vitro: inhibitory
